The supplement of paper PMC4862054
Values belong to the compound of their own block, whether it stands above or below them.

Tests used:
Conditions in all cases: 72 h
CAL-120 [1] = tested on: CAL-120
Description: (§1)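 Drug sensitivity and resistance testing (DSRT) of breast cancer cell lines in 384-well plates, 5 concentrations in 10-fold dilutions over a compound-specific 10,000-fold range. After 72 h, cytotoxicity was read by CellTox Green fluorescence and viability by CellTiter-Glo luminescence (multiplexed), normalised to DMSO and benzethonium chloride controls. EC50 is the inflection point of the fitted dose-response curve (bottom asymptote free, so it can be relative for partial curves) and is censored at the highest tested concentration. Rows with DSS 0 (no meaningful response) were excluded.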

SK-BR-3 [2] = tested on: SK-BR-3
Outline: (§2)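 Seeding of breast cancer cell lines (20 µl suspension) was done into 384-well plates pre-loaded with compound at 5 concentrations, 10-fold apart, covering a compound-specific 10,000-fold range. The plates were incubated for 72 h, read for CellTox Green fluorescence (485/520 nm), and then read for CellTiter-Glo luminescence after 10 min at room temperature. Every plate was normalised to 0.1 % DMSO and a positive kill control. Curve fitting gave the EC50, censored at the top concentration.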

MFM-223 [3] = tested on: MFM-223
Outline: as §2

MCF-10A [4] = tested on: MCF-10A
Outline: as §2

MDA-MB-453 [5] = tested on: MDA-MB-453
Outline: as §2

BT-474 [6] = tested on: BT-474
Outline: as §2

BT-549 [7] = tested on: BT-549
Outline: as §2

MDA-MB-468 [8] = tested on: MDA-MB-468
Outline: as §2

CAL-120 [9] = tested on: CAL-120; remark: listed apart in the source
Outline: as §2

CAL-51 [10] = tested on: CAL-51
Outline: (§3)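 Plates of 384 wells holding compound in 5 µl medium received breast cancer cell lines in 20 µl suspension and were incubated 72 h. CellTiter-Blue (2.5 µl, 2 h, 37 °C) was used for viability, read at 560/590 nm, and every plate was normalised to vehicle and a positive kill control and assessed by Z'-factor. The EC50 derives from a percent-inhibition dose-response curve fit censored at the highest concentration, leaving out rows whose drug sensitivity score was zero.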

CAL-148 [11] = tested on: CAL-148
Description: as §1

MDA-MB-436 [12] = tested on: MDA-MB-436
Description: as §1

HCC1937 [13] = tested on: HCC1937
Outline: as §3

Hs578T [14] = tested on: Hs578T
Outline: as §3

MDA-MB-231 [15] = tested on: MDA-MB-231
Outline: as §3

HCC1143 [16] = tested on: HCC1143
Outline: as §3

BT-549 [17] = tested on: BT-549; remark: listed apart in the source
Outline: as §3

CAL-120 [18] = tested on: CAL-120; remark: listed apart in the source
Outline: as §3

MDA-MB-436 [19] = tested on: MDA-MB-436; remark: listed apart in the source
Outline: as §3

HCC1937 [20] = tested on: HCC1937; remark: listed apart in the source
Outline: as §2

HCC1143 [21] = tested on: HCC1143; remark: listed apart in the source
Outline: as §2

CAL-148 [22] = tested on: CAL-148; remark: listed apart in the source
Outline: as §2

CAL-51 [23] = tested on: CAL-51; remark: listed apart in the source
Outline: as §2

MDA-MB-436 [24] = tested on: MDA-MB-436; remark: listed apart in the source
Outline: as §2

CAL-85-1 [25] = tested on: CAL-85-1
Outline: as §3

MDA-MB-453 [26] = tested on: MDA-MB-453; remark: listed apart in the source
Outline: as §3

CAL-148 [27] = tested on: CAL-148; remark: listed apart in the source
Outline: as §3

HDQ-P1 [28] = tested on: HDQ-P1
Outline: as §3

DU-4475 [29] = tested on: DU-4475
Outline: as §3

HCC1937 [30] = tested on: HCC1937; remark: listed apart in the source
Description: as §1

Hs578T [31] = tested on: Hs578T; remark: listed apart in the source
Description: as §1

MDA-MB-231 [32] = tested on: MDA-MB-231; remark: listed apart in the source
Description: as §1

CAL-85-1 [33] = tested on: CAL-85-1; remark: listed apart in the source
Description: as §1

MFM-223 [34] = tested on: MFM-223; remark: listed apart in the source
Description: as §1

MCF-10A [35] = tested on: MCF-10A; remark: listed apart in the source
Description: as §1

BT-474 [36] = tested on: BT-474; remark: listed apart in the source
Description: as §1

BT-549 [37] = tested on: BT-549; remark: listed apart in the source
Description: as §1

MDA-MB-468 [38] = tested on: MDA-MB-468; remark: listed apart in the source
Description: as §1

HDQ-P1 [39] = tested on: HDQ-P1; remark: listed apart in the source
Description: as §1

HCC1599 [40] = tested on: HCC1599
Outline: as §3

SK-BR-3 [41] = tested on: SK-BR-3; remark: listed apart in the source
Outline: as §3

MFM-223 [42] = tested on: MFM-223; remark: listed apart in the source
Outline: as §3

BT-474 [43] = tested on: BT-474; remark: listed apart in the source
Outline: as §3

MDA-MB-468 [44] = tested on: MDA-MB-468; remark: listed apart in the source
Outline: as §3

HCC1599 [45] = tested on: HCC1599; remark: listed apart in the source
Outline: as §2

Hs578T [46] = tested on: Hs578T; remark: listed apart in the source
Outline: as §2

MDA-MB-231 [47] = tested on: MDA-MB-231; remark: listed apart in the source
Outline: as §2

CAL-85-1 [48] = tested on: CAL-85-1; remark: listed apart in the source
Outline: as §2

HDQ-P1 [49] = tested on: HDQ-P1; remark: listed apart in the source
Outline: as §2

DU-4475 [50] = tested on: DU-4475; remark: listed apart in the source
Outline: as §2

EC50, CellTiter-Glo (SK-BR-3 [2]): 3050 nM | EC50, CellTiter-Glo (MDA-MB-453 [5]): 1910 nM | EC50, CellTiter-Glo (BT-474 [6]): > 10000 nM | EC50, CellTiter-Glo (BT-549 [7]): 3340 nM | EC50, CellTiter-Glo (MDA-MB-468 [8]): 6760 nM
SMILES: CC(C)(C)Cn1c(N)nc2ccc(-c3[nH]c(C(C)(C)C)nc3-c3ccc(F)cc3)nc21
EC50, CellTox Green (CAL-120 [1]): > 10000 nM | EC50, CellTiter-Glo (MFM-223 [3]): 3110 nM | EC50, CellTiter-Glo (MCF-10A [4]): 4590 nM | EC50, CellTiter-Glo (CAL-120 [9]): > 10000 nM

SMILES: Cc1c(N)nc([C@H](CC(N)=O)NC[C@H](N)C(N)=O)nc1C(=O)N[C@H](C(=O)N[C@H](C)[C@@H](O)[C@H](C)C(=O)N[C@H](C(=O)NCCc1nc(-c2nc(C(=O)NCCC[S+](C)C)cs2)cs1)[C@@H](C)O)[C@@H](OC1OC(CO)C(O)C(O)C1OC1OC(CO)C(O)C(OC(N)=O)C1O)c1cnc[nH]1 (stereo partly specified) [Bleomycin]
EC50, CellTiter-Blue viability (CAL-51 [10]): 9960 nM | EC50, CellTox Green (CAL-148 [11]): 396 nM | EC50, CellTox Green (MDA-MB-436 [12]): 7500 nM | EC50, CellTiter-Blue viability (HCC1937 [13]): 767 nM | EC50, CellTiter-Blue viability (Hs578T [14]): 69.2 nM | EC50, CellTiter-Blue viability (MDA-MB-231 [15]): 109 nM | EC50, CellTiter-Blue viability (HCC1143 [16]): 201 nM | EC50, CellTiter-Blue viability (BT-549 [17]): 16.4 nM | EC50, CellTiter-Blue viability (CAL-120 [18]): 582 nM | EC50, CellTiter-Blue viability (MDA-MB-436 [19]): 7330 nM | EC50, CellTiter-Glo (HCC1937 [20]): 8710 nM | EC50, CellTiter-Glo (SK-BR-3 [2]): 1830 nM | EC50, CellTiter-Glo (HCC1143 [21]): 9670 nM | EC50, CellTiter-Glo (CAL-148 [22]): 911 nM | EC50, CellTiter-Glo (BT-549 [7]): 2360 nM | EC50, CellTiter-Glo (CAL-51 [23]): 49.9 nM | EC50, CellTiter-Glo (MDA-MB-436 [24]): 5920 nM

EC50, CellTiter-Blue viability (MDA-MB-453 [26]): 2.22 nM | EC50, CellTiter-Blue viability (HCC1599 [40]): 88.6 nM | EC50, CellTiter-Blue viability (HCC1937 [13]): 2.21 nM | EC50, CellTiter-Blue viability (MDA-MB-231 [15]): 6.44 nM | EC50, CellTiter-Blue viability (SK-BR-3 [41]): 5.45 nM | EC50, CellTiter-Blue viability (BT-474 [43]): 26.9 nM | EC50, CellTiter-Blue viability (HCC1143 [16]): 8.47 nM | EC50, CellTiter-Blue viability (BT-549 [17]): 2.78 nM | EC50, CellTiter-Blue viability (MDA-MB-468 [44]): 5.66 nM | EC50, CellTiter-Blue viability (MDA-MB-436 [19]): 14.3 nM | EC50, CellTiter-Glo (HCC1599 [45]): 96.1 nM | EC50, CellTiter-Glo (HCC1937 [20]): 17.2 nM | EC50, CellTiter-Glo (MDA-MB-231 [47]): 16.9 nM | EC50, CellTiter-Glo (SK-BR-3 [2]): 5.41 nM | EC50, CellTiter-Glo (MDA-MB-453 [5]): 7.36 nM | EC50, CellTiter-Glo (BT-474 [6]): 13.8 nM | EC50, CellTiter-Glo (HCC1143 [21]): 8.56 nM | EC50, CellTiter-Glo (BT-549 [7]): 3.63 nM | EC50, CellTiter-Glo (MDA-MB-468 [8]): 3.42 nM | EC50, CellTiter-Glo (MDA-MB-436 [24]): 6.13 nM
SMILES: CC(C)C[C@H](NC(=O)[C@H](CCc1ccccc1)NC(=O)CN1CCOCC1)C(=O)N[C@@H](Cc1ccccc1)C(=O)N[C@@H](CC(C)C)C(=O)[C@@]1(C)CO1 [Carfilzomib]
EC50, CellTiter-Blue viability (CAL-85-1 [25]): 13.6 nM | EC50, CellTiter-Blue viability (CAL-148 [27]): 25.8 nM | EC50, CellTiter-Blue viability (CAL-51 [10]): 20.2 nM | EC50, CellTiter-Blue viability (HDQ-P1 [28]): 10.9 nM | EC50, CellTiter-Blue viability (DU-4475 [29]): 12.2 nM | EC50, CellTox Green (HCC1937 [30]): 6.49 nM | EC50, CellTox Green (Hs578T [31]): 31.9 nM | EC50, CellTox Green (MDA-MB-231 [32]): 10.2 nM | EC50, CellTox Green (CAL-85-1 [33]): 9 nM | EC50, CellTox Green (MFM-223 [34]): 8.42 nM | EC50, CellTox Green (MCF-10A [35]): 136 nM | EC50, CellTox Green (BT-474 [36]): 60.2 nM | EC50, CellTox Green (CAL-148 [11]): 16.1 nM | EC50, CellTox Green (BT-549 [37]): 11.4 nM | EC50, CellTox Green (MDA-MB-468 [38]): 0.78 nM | EC50, CellTox Green (CAL-120 [1]): 34.6 nM | EC50, CellTox Green (MDA-MB-436 [12]): 6.94 nM | EC50, CellTox Green (HDQ-P1 [39]): 25.1 nM | EC50, CellTiter-Blue viability (Hs578T [14]): 5.47 nM | EC50, CellTiter-Blue viability (MFM-223 [42]): 1.94 nM | EC50, CellTiter-Blue viability (CAL-120 [18]): 9.07 nM | EC50, CellTiter-Glo (Hs578T [46]): 12.4 nM | EC50, CellTiter-Glo (CAL-85-1 [48]): 8.12 nM | EC50, CellTiter-Glo (MFM-223 [3]): 3.9 nM | EC50, CellTiter-Glo (MCF-10A [4]): 90.6 nM | EC50, CellTiter-Glo (CAL-148 [22]): 33.1 nM | EC50, CellTiter-Glo (CAL-51 [23]): 13.1 nM | EC50, CellTiter-Glo (CAL-120 [9]): 25.3 nM | EC50, CellTiter-Glo (HDQ-P1 [49]): 19.1 nM | EC50, CellTiter-Glo (DU-4475 [50]): 42.8 nM
